≈ marks a conversion by molar mass, not a printed value.
What was measured:
[1] = tested on: Bacillus cereus; assay: Antibacterial activity against Bacillus cereus ATCC 10702; format: functional
[2] = tested on: Staphylococcus epidermidis; assay: Antibacterial activity against Staphylococcus epidermidis ATCC 12228; format: functional

An MIC [1] of 32 mg/L (≈ 126 µM) and an MIC [2] of 32 mg/L (≈ 126 µM) were found for `Cc1ccc(O)c2c1C(=O)c1cccc(O)c1C2=O` in this work.
An MIC [1] of 128 mg/L (≈ 291 µM) and an MIC [2] of 4 mg/L (≈ 9.08 µM) were found for `C[C@@H]1C[C@H](O)C2=C3[C@@H](C[C@@H]4C(C)(C)[C@H](O)CC[C@@]24C)Oc2ccc(C(=O)O)cc2C[C@@]31C` in this work.
An MIC [1] of 64 mg/L (≈ 395 µM) and an MIC [2] of 128 mg/L (≈ 789 µM) were found for `Cc1ccc(O)c2c1C(=O)CC2` in this work.
An MIC [1] of 8 mg/L (≈ 24.8 µM) and an MIC [2] of 4 mg/L (≈ 12.4 µM) were found for `O=C(N[C@H](CO)[C@H](O)c1ccc([N+](=O)[O-])cc1)C(Cl)Cl` [CHLORAMPHENICOL] in this work.
